Data: PMC6724193 (ACS infectious diseases, 2019)
In brackets after ≈: the same amount, converted by molar mass. Several values for one entry are separate records, joined by “and”; a condition that tells them apart may be missing. Equal entries are not always repeated. Entries after “also recorded” stand apart in the source; their conditions may differ. Where two headings read alike, the source gives them in different places. Marks after values point to notes of the source that are not given here.

Columns and labels:
Vero = settings: African green monkey, 72 h
[1] = target: E. coli biotin synthase (EcBioB) (Escherichia coli, UniProt P12996); assay: biochemical; assay type: biochemical; settings: for IC50: 5 μM EcBioB dimer, 10 μM DTB, 100 μM SAM, single-turnover
E. coli biotin synthase (EcBioB), sequence (P12996 whole entry): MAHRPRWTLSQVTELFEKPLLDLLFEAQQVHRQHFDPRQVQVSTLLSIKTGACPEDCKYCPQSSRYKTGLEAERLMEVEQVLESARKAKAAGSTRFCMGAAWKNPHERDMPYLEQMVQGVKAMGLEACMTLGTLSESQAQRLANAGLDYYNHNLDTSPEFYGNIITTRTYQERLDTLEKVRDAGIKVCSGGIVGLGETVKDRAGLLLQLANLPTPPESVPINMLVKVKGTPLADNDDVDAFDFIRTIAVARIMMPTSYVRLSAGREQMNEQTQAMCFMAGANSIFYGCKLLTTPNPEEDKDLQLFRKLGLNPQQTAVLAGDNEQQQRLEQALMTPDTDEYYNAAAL

M. bovis BCG = assay: microbe, parasite or virus in culture; assay type: cell-based
P. aeruginosa (PA14) = assay: MIC, broth microdilution, P. aeruginosa; settings: Pseudomonas aeruginosa
M. avium complex (3) = assay: MIC against M. avium complex; assay type: cell-based; settings: Mycobacterium avium
S. aureus (USA300) = assay: MIC, broth microdilution, S. aureus; settings: Staphylococcus aureus
M. tuberculosis H37Rv [2] = assay: MIC against M. tuberculosis H37Rv; assay type: cell-based, Mycobacterium tuberculosis
M. africanum = assay: microbe, parasite or virus in culture; assay type: cell-based
E. faecalis (V583) = assay: MIC, broth microdilution, E. faecalis; settings: Enterococcus faecalis
M. smegmatis mc^2155 = assay: MIC90 against M. smegmatis; assay type: cell-based; settings: ≥90% growth inhibition
E. coli ATCC 25922 = assay: MIC, broth microdilution, E. coli; settings: Escherichia coli, ATCC25922
[3] = test system: non-tuberculosis mycobacteria, gram-positive and gram-negative pathogens; assay: organism not typed; assay type: cell-based
M. tuberculosis (2) XDR = assay: microbe, parasite or virus in culture; assay type: cell-based; settings: Mycobacterium tuberculosis
M. abscessus (4) = assay: MIC against M. abscessus; assay type: cell-based; settings: Mycobacteroides abscessus
M. tuberculosis HN878 = assay: microbe, parasite or virus in culture; assay type: cell-based; settings: Mycobacterium tuberculosis
E. coli K-12 = assay: Intracellular accumulation of antibiotics; assay type: cell-based
A. baumannii (AB5075) = assay: MIC, broth microdilution, A. baumannii; settings: Acinetobacter baumannii
[4] = test system: M. tuberculosis (8) drug-sensitive clinical isolates; assay: microbe, parasite or virus in culture; assay type: cell-based; settings: Mycobacterium tuberculosis
M. tuberculosis H37Rv [5] = assay type: cell-based
M. tuberculosis (6) MDR+ = assay: microbe, parasite or virus in culture; assay type: cell-based; settings: Mycobacterium tuberculosis
M. tuberculosis Erdman = assay: microbe, parasite or virus in culture; assay type: cell-based; settings: Mycobacterium tuberculosis
HepG2 = settings: human, 72 h
M. tuberculosis (7) MDR = assay: microbe, parasite or virus in culture; assay type: cell-based; settings: Mycobacterium tuberculosis
[6] = test system: M. tuberculosis strain carrying two copies of the bioB gene; assay: MIC against BioB merodiploid strain; assay type: cell-based
[7] = for t1/2 (i.v.): 5 mg/kg i.v., terminal elimination half-life; for F (oral bioavailability) / AUC0–∞ (i.v.) / CL (i.v.) / Vd (i.v.) / AUC0–∞ (p.o.): mouse, in vivo; for AUC0–∞ (i.v.) / CL (i.v.) / Vd (i.v.): iv, 5 mg/kg; for AUC0–∞ (p.o.): po, 25 mg/kg
[8] = test system: biotinylated proteome of M. tuberculosis; assay type: cell-based, M. tuberculosis H37Ra
[9] = test system: gram-positive and gram-negative bacteria or fungi; settings: cited from earlier work
[10] = target: MtBPL (M. tuberculosis biotin protein ligase) (Mycobacterium tuberculosis, UniProt I6YFP0); assay type: binding
MtBPL (M. tuberculosis biotin protein ligase), sequence (I6YFP0 whole entry, looked up): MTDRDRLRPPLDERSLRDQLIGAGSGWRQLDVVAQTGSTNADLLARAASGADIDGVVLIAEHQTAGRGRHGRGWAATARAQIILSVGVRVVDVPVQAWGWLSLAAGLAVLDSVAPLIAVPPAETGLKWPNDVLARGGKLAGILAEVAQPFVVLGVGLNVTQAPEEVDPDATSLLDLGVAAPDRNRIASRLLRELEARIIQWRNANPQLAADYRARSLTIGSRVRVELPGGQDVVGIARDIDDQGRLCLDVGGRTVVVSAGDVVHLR

[11] = test system: biotin pathway intermediates (vitamers); settings: acidomycin added to culture media; cited from earlier work
mycobacteria = settings: cited from earlier work
[12] = test system: M. tuberculosis infection; settings: cited from earlier work

SMILES: O=C(O)CCCCCC1NC(=O)CS1 (racemic) [(±)-acidomycin, 6-(4-Oxothiazolidin-2-yl)hexanoic acid]
- EC (greater than 50% inhibition of cell viability) (Vero): >1000^e μM
- Ki [1]: 2000 ± 1300 nM
- modality of inhibition [1]: competitive inhibitor; also recorded: competitive inhibition
- MIC (M. bovis BCG): 1.30 µM (≈ 0.282 µg/mL)
- MIC (M. bovis BCG; Mycobacterium tuberculosis variant bovis BCG, BCG): 1.3 µM (≈ 0.282 µg/mL)
- MIC90 (P. aeruginosa (PA14)): > 1000 µM
- MIC (M. avium complex (3)): > 100 µM
- MIC90 (S. aureus (USA300)): > 1000 µM
- MIC (M. tuberculosis H37Rv [2]): 1.56 µM (≈ 0.339 µg/mL)
- effect on M. tuberculosis viability (M. tuberculosis H37Rv [2]): bacteriostatic
- fold difference in MIC relative to (S)-(−)-acidomycin (M. tuberculosis H37Rv [2]): about 2.5 fold
- MIC (M. tuberculosis H37Rv [2]; Mycobacterium tuberculosis, H37RV): 1.6 µM (≈ 0.348 µg/mL)
- MIC (M. africanum): 0.20 µM (≈ 0.0435 µg/mL)
- MIC (M. africanum; Mycobacterium tuberculosis): 0.2 µM (≈ 0.0435 µg/mL)
- MIC90 (E. faecalis (V583)): > 1000 µM
- MIC90 (M. smegmatis mc^2155): 10^d μM
- MIC90 (E. coli ATCC 25922): > 1000 µM
- activity toward representative gram-negative and gram-positive pathogens [3]: inactive
- MIC (M. tuberculosis (2) XDR): 0.096 to 1.2 µM (≈ 0.0209 to 0.261 µg/mL)
- MIC (M. abscessus (4)): > 100 µM
- MIC (M. tuberculosis HN878): 0.6 µM (≈ 0.13 µg/mL)
- Accumulation, +biotin (M. tuberculosis H37Ra): 1150 ± 40 nmol/10^12 CFUs
- Accumulation, −biotin (M. tuberculosis H37Ra): 1300 ± 400 nmol/10^12 CFUs
- Intracellular Concentration, −biotin (M. tuberculosis H37Ra): 2600 ± 800 µM
- fold higher accumulation in M. tuberculosis than in E. coli (M. tuberculosis H37Ra): approximately 30 fold
- impact of exogenous biotin on cellular accumulation in M. tuberculosis (M. tuberculosis H37Ra): little impact
- IC/EC Ratio (E. coli K-12): 1.6 and 1.6 ± 0.4
- Intracellular Concentration, −biotin (E. coli K-12): 80 µM
- Accumulation, −biotin (E. coli K-12; E. coli, 50 μM extracellular): 80 ± 20 nmol/10^12 CFUs
- Accumulation, +biotin (E. coli K-12; E. coli, 50 μM extracellular, 1 μM biotin): 61 ± 2 nmol/10^12 CFUs
- Intracellular Concentration, −biotin (E. coli K-12; E. coli, cell volume 1.0 μm^3): 80 ± 20 µM
- MIC90 (A. baumannii (AB5075)): > 1000 µM
- MIC [4]: 0.096 to 6.2 µM (≈ 0.0209 to 1.35 µg/mL)
- effect of KAPA supplementation on growth inhibition (M. tuberculosis H37Rv [5]): no effect
- effect of biotin supplementation on growth inhibition (M. tuberculosis H37Rv [5]): completely rescued
- shift of MIC by DTB supplementation (M. tuberculosis H37Rv [5]): approximately two-fold
- MIC (M. tuberculosis (6) MDR+): 0.2 to 4.8 µM (≈ 0.0435 to 1.04 µg/mL)
- MIC (M. tuberculosis Erdman): 1.56 µM (≈ 0.339 µg/mL)
- EC (greater than 50% inhibition of cell viability) (HepG2): >1000^e μM
- MIC (M. tuberculosis (7) MDR): 0.6 to 6.2 µM (≈ 0.13 to 1.35 µg/mL)
- change of MIC in BioB merodiploid versus H37Rv [6]: increase in the MIC

SMILES: O=C(O)CCCCC[C@@H]1NC(=O)CS1 [(R)-(+)-acidomycin]
- IC50 [1]: > 100000 nM
- inhibition of EcBioB ([1]; at 100 μM): less than 30%
- MIC (M. tuberculosis H37Rv [2]): 7.7 µM (≈ 1.67 µg/mL)
- fold difference in MIC relative to (S)-(−)-acidomycin (M. tuberculosis H37Rv [2]): thirteen-fold less active
- t1/2 (i.v.) [7]: 19.2 ± 2.4 min
- F (oral bioavailability) [7]: 16 ± 7%
- AUC0–∞ (i.v.) [7]: 2055 ± 564 ng·h/mL
- CL (i.v.) [7]: 40.55 ± 8.03 mL/min/kg
- Vd (i.v.) [7]: 1.12 ± 0.37 L/kg
- AUC0–∞ (p.o.) [7]: 1591 ± 718 ng·h/mL

SMILES: O=C(O)CCCCC[C@H]1NC(=O)CS1 [(S)-(−)-acidomycin]
- IC50 [1]: 13300 ± 1800 nM
- t1/2 (i.v.) [7]: 14.4 ± 0.1 min
- F (oral bioavailability) [7]: 8 ± 1%
- AUC0–∞ (i.v.) [7]: 2116 ± 115 ng·h/mL
- CL (i.v.) [7]: 39.38 ± 2.1 mL/min/kg
- Vd (i.v.) [7]: 0.82 ± 0.05 L/kg
- AUC0–∞ (p.o.) [7]: 890 ± 106 ng·h/mL

SMILES: Nc1ncnc2c1ncn2[C@@H]1O[C@H](CNS(=O)(=O)NC(=O)CCCC[C@@H]2SC[C@@H]3NC(=O)N[C@@H]32)[C@@H](O)[C@H]1O [Bio-AMS, 5ʹ-[N-(D-biotinoyl)sulfamoyl]amino-5ʹ-deoxyadenosine]
- impact on global protein biotinylation [8]: noticeable decrease in protein band intensity

SMILES: CO[C@H]1/C=C/O[C@@]2(C)Oc3c(C)c(O)c4c(O)c(c(/C=N/N5CCN(C)CC5)c(O)c4c3C2=O)NC(=O)/C(C)=C\C=C\[C@H](C)[C@H](O)[C@@H](C)[C@@H](O)[C@@H](C)[C@H](OC(C)=O)[C@@H]1C [Rifampicin, reference compound]
- IC/EC Ratio (E. coli K-12): 2.1

SMILES: CN(C)[C@@H]1C(O)=C(C(N)=O)C(=O)[C@@]2(O)C(O)=C3C(=O)c4c(O)cccc4[C@@](C)(O)[C@H]3C[C@@H]12 [Tetracycline, reference compound]
- Accumulation, +biotin (M. tuberculosis H37Ra): 2220 ± 50 nmol/10^12 CFUs
- Accumulation, −biotin (M. tuberculosis H37Ra): 2200 ± 200 nmol/10^12 CFUs
- Accumulation, +biotin (E. coli K-12): 1600 ± 100 nmol/10^12 CFUs
- Accumulation, −biotin (E. coli K-12): 3100 ± 120 nmol/10^12 CFUs

SMILES: CSc1ccc2c(c1)N(CCC1CCCCN1C)c1ccccc1S2 (stereo not shown) [Thioridazine]
- Accumulation, +biotin (M. tuberculosis H37Ra): 5.2 ± 0.4 nmol/10^12 CFUs
- Accumulation, −biotin (M. tuberculosis H37Ra): 18 ± 1 nmol/10^12 CFUs
- IC/EC Ratio (M. tuberculosis H37Ra): 0.7 and 0.72 ± 0.04
- Intracellular Concentration, −biotin (M. tuberculosis H37Ra): 36 ± 2 µM

SMILES: O=C(O)CCCCCC1NC(=O)CS1 (stereo not shown) [acidomycin]
- Ki [1]: ~1000 nM
- production of 5′-deoxyadenosine by BioB [1]: significantly enhanced
- time-dependent inhibition [1]: did not exhibit time-dependent inhibition
- difference in whole cell activity, E. coli versus M. tuberculosis (M. tuberculosis H37Rv [2]): > 100 fold
- susceptibility of NTM strains [3]: intrinsically resistant
- MIC ([3]; read-out: MICs): > 1000 µM
- concentration without growth inhibition [9]: > 1 mg/mL
- concentration without growth inhibition ([9]; converted value): > 4.6 mM
- binding to MtBPL [10]: does not bind to MtBPL
- solubility (physchem): < 4000 µM
- increase of accumulation of biotin pathway intermediates (vitamers) [11]: two- to seventy-fold
- increase in inhibitory concentrations after growth in the presence of acidomycin (mycobacteria): two-fold
- concentrations required to inhibit the growth of mycobacteria in vitro (mycobacteria; converted value): 1.2 to 46.0 µM
- activity against an M. tuberculosis infection in vivo [12]: inactive
